Data as given in patent publication US20240415878A1, “Compositions and Methods for Modulating Mitochondrial Function” (Board of Regents, The University of Texas System, priority 2021, published 2024).

Molecular target: T1, Mrs2 (Mus musculus, UniProt Q5NCE8)
T1 construct: endogenous in cells; host or cells: primary murine hepatocytes (C57BL/6J mice)
T1 sequence (Q5NCE8 54-434): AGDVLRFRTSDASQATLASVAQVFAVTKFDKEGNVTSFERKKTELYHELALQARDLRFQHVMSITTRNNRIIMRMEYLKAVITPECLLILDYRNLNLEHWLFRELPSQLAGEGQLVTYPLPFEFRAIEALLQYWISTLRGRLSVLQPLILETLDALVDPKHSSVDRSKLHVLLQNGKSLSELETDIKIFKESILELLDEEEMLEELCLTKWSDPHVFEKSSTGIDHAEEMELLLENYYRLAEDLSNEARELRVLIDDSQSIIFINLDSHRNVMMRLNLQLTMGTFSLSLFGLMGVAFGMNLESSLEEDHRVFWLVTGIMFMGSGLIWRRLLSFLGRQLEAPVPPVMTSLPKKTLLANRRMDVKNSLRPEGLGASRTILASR
Experiment: Mrs2 inhibition in intact hepatocytes loaded with Mag-Green-AM, confocal, L-lactate stimulation
Type: cell-based, murine
Conditions: 5 μM
Experimental: Bacterial CorA forms a pentameric complex that selectively drives Mg2+ uptake in an electrogenic manner. […] Mrs2 is the eukaryotic homologue of CorA and contains two transmembrane domains with a well-conserved F/Y-G-M-N motif; therefore, CorA blockers were tested to determine if they alter Mrs2-mediated mMg^2+ uptake (Moomaw and Maguire, 2008). Digitonin permeabilized hepatocytes were utilized to measure the inhibitory effect and determine its IC50. Permeabilized cells were treated with CPACC followed by a 1 mM bolus of MgCl2 (FIG. 10B). A 1 mM Mg^2+ bolus was added after baseline recording, and the extramitochondrial Mg^2+ clearance was used as a read-out for Mrs2-mediated mMg^2+ uptake using Mag-Green as a Mg^2+ indicator. […] We next investigated Mrs2 inhibition in intact hepatocytes loaded with Mag-Green-AM. […] Next CPACC was examined to determine if it had any effect on MCU-mediated mCa^2+ uptake in permeabilized cells. […] The availability of the compound to intact cells was measured using graphite furnace atomic absorption spectroscopy (GFAAS) and bicinchoninic acid in parallel. […] Encouraged by the potent inhibitory effect of CPACC and cellular permeability, we next measured the cytotoxicity of CPACC in cells. […]
Evaluation of dose dependent Mrs2 inhibition by confocal live cell imaging system. […] Data was quantified using Leica Application Suite X.

[NH2][Co]([NH2])([NH2])([NH2])([NH2])[Cl] [CPACC, chloropentaammine cobalt (III) chloride]
Mitochondrial Mg^2+ uptake following L-lactate stimulation: significantly inhibited
